Measurements: patent US20050020557A1, “Method for treating diseases using HSP90-inhibiting agents in combination with enzyme inhibitors” (Kosan Biosciences, Inc., priority 2003, published 2005)

Columns and labels:
ErbB2 protein [1] = assay: ErbB2 protein expression in SKBr3 cells; assay type: cell-based, human
ErbB2 protein [2] = assay: ErbB2 protein expression in glioma cells; assay type: cell-based
[3] = clinical trials; twice-weekly regimen; sole agent; cited from earlier work
[4] = tested on: DLD-1 cells (human colorectal cancer cells); assay: Cell viability (MTS) drug combination assay, combination index by median effect analysis, DLD-1 cells; assay type: cell-based; settings: combination of enzyme inhibitor with 17-AAG, CI<1 synergism, CI=1 additivity, CI>1 antagonism
Description: Human colon adenocarcinoma cell line, DLD-1, and human breast adenocarcinoma cell line, SKBr-3, were obtained from American Type Culture Collection (manassas, Va.). […] 17-DMAG and 17-AAG were obtained using published procedures. Other cytotoxic agents were purchased commercially from suppliers such as Sigma Chemical Co. (St. Louis, Mo.) and Sequoia Research Products (Oxford, UK).
Cells were seeded in duplicate in 96-well microtiter plates at a density of 5,000 cells per well and allowed to attach overnight. […] Cell viability was determined using the MTS assay (Promega). For the drug combination assay, cells were seeded in duplicate in 96-well plates (5,000 cells/well). […] Based on the IC50 values of each individual drug, combined drug treatment was designed at constant ratios of two drugs, i.e., equivalent to the ratio of their IC50. Two treatment schedules were used: In one schedule, the cells were exposed to 24 hours of 17-AAG or 17-DMAG. The drug was then added to the cells and incubated for 48 hours. […] Cell viability was determined by the MTS assay.
Synergism, additivity or antagonism was determined by median effect analysis using the combination index (CI) calculated using Calcusyn (Biosoft, Cambridge, UK). […] The “enhancing” effect of two drugs can also be determined.

[5] = tested on: SKBr-3 cells (human breast cancer cells); assay: Cell viability (MTS) drug combination assay, combination index by median effect analysis, SKBr-3 cells; assay type: cell-based; settings: combination of enzyme inhibitor with 17-AAG, CI<1 synergism, CI=1 additivity, CI>1 antagonism; for CI value, 17-AAG Pre-Administration: 17-AAG 24 h before enzyme inhibitor (48 h); for CI value, 17-AAG Post-Administration: enzyme inhibitor 24 h, then 17-AAG for 48 h
Description: Human colon adenocarcinoma cell line, DLD-1, and human breast adenocarcinoma cell line, SKBr-3, were obtained from American Type Culture Collection (manassas, Va.). […] Other cytotoxic agents were purchased commercially from suppliers such as Sigma Chemical Co. (St. Louis, Mo.) and Sequoia Research Products (Oxford, UK). Cells were seeded in duplicate in 96-well microtiter plates at a density of 5,000 cells per well and allowed to attach overnight. […] Cell viability was determined using the MTS assay (Promega). […] Based on the IC50 values of each individual drug, combined drug treatment was designed at constant ratios of two drugs, i.e., equivalent to the ratio of their IC50. Two treatment schedules were used: In one schedule, the cells were exposed to 24 hours of 17-AAG or 17-DMAG. The drug was then added to the cells and incubated for 48 hours. […] Cell viability was determined by the MTS assay. Synergism, additivity or antagonism was determined by median effect analysis using the combination index (CI) calculated using Calcusyn (Biosoft, Cambridge, UK). […] The “enhancing” effect of two drugs can also be determined.

Row | Structure (SMILES) | expression of ErbB2 protein (ErbB2 protein [1]) | expression of ErbB2 protein (ErbB2 protein [2]) | MTD (maximum tolerated dose) [3] | CI value, 17-AAG Pre-Administration ([4]; 17-AAG 24 h before enzyme inhibitor (48 h)) | CI value, 17-AAG Post-Administration ([4]; enzyme inhibitor 24 h, then 17-AAG for 48 h) | CI value, 17-AAG Pre-Administration [5] | CI value, 17-AAG Post-Administration [5]
1 | C=CCNC1=C2C[C@@H](C)C[C@H](OC)[C@H](O)[C@@H](C)/C=C(\C)[C@H](OC(N)=O)[C@@H](OC)/C=C\C=C(/C)C(=O)NC(=CC1=O)C2=O [17-AAG, 17-(allylamino)-17-desmethoxygeldanamycin] | reduced the expression of ErbB2 protein | reduced the expression of ErbB2 protein | about 220 mg/m2 |  |  |  | 
2 | COc1cc2ncnc(Nc3ccc(F)c(Cl)c3)c2cc1OCCCN1CCOCC1 [Iressa] |  |  |  | 0.76 ± 0.37 | 0.41 ± 0.01 | 0.77 ± 0.29 | 0.67 ± 0.02
3 | CC(/C=C/C(=O)NO)=C\[C@@H](C)C(=O)c1ccc(N(C)C)cc1 [Trichostatin A] |  |  |  |  |  | 1.16 ± 0.02 | 0.91 ± 0.007
